In ChEMBL document CHEMBL1150408, “Synthesis, induced-fit docking investigations, and in vitro aldose reductase inhibitory activity of non-carboxylic acid containing 2,4-thiazolidinedione derivatives” (Bioorg Med Chem, 2008):

system: not listed separately; test: Dissociation constant, pKa of the compound; format: physicochemical; settings: not given

Q: For O=C1NC(=O)[C@@]2(CCOc3ccc(F)cc32)N1 [SORBINIL], which pKa is on record?
A: 8

biological target: Aldo-keto reductase family 1 member B1 (Bos taurus, UniProt P16116); test: Inhibition of bovine lens ALR2 assessed as reduction of D,L-glyceraldehyde by spectrophotometry; parameters: species or system Lens of camera-type eye; settings: not given

Q: Which IC50 does the source give for O=C(CN1C(=O)S/C(=C\c2ccc(OCc3ccccc3)cc2)C1=O)NO here?
A: 7.34 µM

Q: For O=C(CN1C(=O)S/C(=C\c2cccc(Oc3ccccc3)c2)C1=O)NO, which IC50 is on record?
A: 12.7 µM

Q: For O=C(CN1C(=O)S/C(=C\c2ccc(Oc3ccccc3)cc2)C1=O)NO, which IC50 is on record?
A: 3.67 µM

Q: For O=C(CN1C(=O)S/C(=C\c2ccc(-c3ccccc3)cc2)C1=O)NO, which IC50 is on record?
A: 20.3 µM

Q: Which IC50 does the source give for NC(=O)CN1C(=O)S/C(=C\c2ccc(O)cc2)C1=O here?
A: 6.52 µM

Q: Which IC50 does the source give for O=C(CN1C(=O)S/C(=C\c2cccc3ccccc23)C1=O)NO here?
A: 4.2 µM

Q: With O=C(CN1C(=O)S/C(=C\c2ccc(O)cc2)C1=O)NO as the compound, how does the IC50 read?
A: 1.79 µM

biological target: Aldo-keto reductase family 1 member B1 (Bos taurus) (UniProt P16116); test: Inhibition of bovine lens ALR2 at 25 uM assessed as reduction of D,L-glyceraldehyde by spectrophotometry; settings: Lens of camera-type eye

Q: For O=C(CN1C(=O)S/C(=C\c2ccc3ccccc3c2)C1=O)NO, which inhibition is on record?
A: 39%

biological target: Aldo-keto reductase family 1 member B1 (Bos taurus) (UniProt P16116); test: Inhibition of bovine lens ALR2 at 12.5 uM assessed as reduction of D,L-glyceraldehyde by spectrophotometry; format: tissue-based; settings: Lens of camera-type eye

Q: With COc1cccc(/C=C2\SC(=O)N(CC(N)=O)C2=O)c1 as the compound, how does the inhibition read?
A: 10%

Q: Which inhibition does the source give for NC(=O)CN1C(=O)S/C(=C\c2ccc(-c3ccccc3)cc2)C1=O here?
A: 18%

Q: Which inhibition does the source give for COc1cc(/C=C2\SC(=O)N(CC(N)=O)C2=O)ccc1O here?
A: 31%

Q: Which inhibition does the source give for NC(=O)CN1C(=O)S/C(=C\c2cccc(Oc3ccccc3)c2)C1=O here?
A: 8%

Q: With NC(=O)CN1C(=O)S/C(=C\c2cccc(O)c2)C1=O as the compound, how does the inhibition read?
A: 16%

Q: For COc1ccc(/C=C2\SC(=O)N(CC(N)=O)C2=O)cc1O, which inhibition is on record?
A: 0%

Q: For COc1ccc(/C=C2\SC(=O)N(CC(N)=O)C2=O)cc1, which inhibition is on record?
A: 0%

Q: For NC(=O)CN1C(=O)S/C(=C\c2ccc3ccccc3c2)C1=O, which inhibition is on record?
A: 3%

Q: For NC(=O)CN1C(=O)S/C(=C\c2ccc(Oc3ccccc3)cc2)C1=O, which inhibition is on record?
A: 0%

Q: Which inhibition does the source give for NC(=O)CN1C(=O)S/C(=C\c2cccc3ccccc23)C1=O here?
A: 32%

biological target: Aldose reductase (Bos taurus); test: Inhibition of ALR2; settings: not given

Q: Which IC50 does the source give for O=C(O)CN1C(=O)S/C(=C\c2ccc(O)cc2)C1=O here?
A: 0.15 µM
